“Also recorded” adds a separate entry of the source.
Key:
[1] = Stability of SkQ1 in solutions with different prolongators (storage 50 days at room temperature, HPLC-MS/MS); type: physicochemical; details: for Relative content of SkQ1 after incubation for 50 days: 10 mM sodium phosphate pH 6.5, 0.9% NaCl, 0.01% benzalkonium chloride, room temperature
Experimental: (§1) Materials and Method for Quantitative Detection of SkQ1
(§2) Analysis is carried out by high-performance liquid chromatography with MS/MS detection.
(§3) 100 μL of the internal standard solution is placed into a 10 ml flask, 5 ml of the water-ethanol solution is added and stirred for 11 min. 500 μL of sample solution is added to 0.1 ml of a 0.5 M solution of 3-chloroperbenzoic acid in ethanol, and the volume is adjusted to the mark with ethanol-water solution and stirred for 30 min. 1 ml of the resulting solution is transferred into a chromatographic vial.
(§4) The chromatographic conditions are as follows: The device used is a Waters ACQUITY UPLC®. The column used is steel, 2.1×50 mm, filled with sorbent Acquity BEH C18, 1.7 μm (Waters, P/N 186002350) or equivalent. The column temperature is 35° C. The mobile phase is eluent A: 20 mM solution of formic acid in 5% aqueous acetonitrile and eluent B: 20 mM solution of formic acid in aqueous acetonitrile. The flow rate is 0.5 ml/min. The volume of injection is the total loop (about 11 μL). The elution mode is a gradient of eluents A and B according to Table 4.
(§5) The time of the analysis is about 5 min. The detector is a Waters TQD (tri-quadrupole) for MS/MS.
(§6) The conditions of detection is as follows: The electrospraying mode is positive (ES+). The working mode is monitoring of reactions of settled ions (MRM). The temperature of the ion source is 120° C. The vaporization temperature is 450° C. The cone voltage is 55 V. The capillary voltage is 3.0 kV. The collision gas (CID) is argon. The collision gas flow rate is 0.18 ml/min. The collision gas pressure (CID) is 4.5×10^−3 mbar. The transitions of scans and collision energy are according to Table 5.
(§7) The SkQ1 content in the product (μg/ml) was calculated using the equation:
(§8) [formula] • “S/Ssmpl” is the ratio of peak areas and SkQ1 and SkQ1-d15 in chromatograms of the sample solution; • “S/Sstd” is the ratio of SkQ1 and SkQ1-d15 peak areas in chromatograms of the SS solution; • “a” is the amount of SkQ1 taken to prepare the original standard solution, in mgs; • “W” is the water content and organic solvents in SkQ1 substance taken to prepare the original standard solution, in percent; and • “P” is the SkQ1 content in SkQ1 substance taken to prepare the original standard solution, in percent.

[2] = Stability of SkQ1 in solutions containing benzalkonium chloride (storage 24 hours at room temperature, HPLC-MS/MS); type: physicochemical; details: for Determined concentration of SkQ1 in 24 hours: 10 mM sodium phosphate pH 6.5, 0.9% NaCl
Experimental: as §1, §2, §3, §4, §5, §6, §7, §8

Question: Which “Relative content of SkQ1 after incubation for 50 days” value (from here on “Relative content … for 50 days”) ([1]; 0.2% HPMC) does the source give for Br.CC1=C(C)C(=O)C(CCCCCCCCCC[P+](c2ccccc2)(c2ccccc2)c2ccccc2)=CC1=O [SkQ1] here?
Answer: Its value is 93%.

Question: And the “Effect of prolongator on SkQ1 concentration during storage (in words)” value ([1]; 0.2% HPMC, 50 days at room temperature)?
Answer: The value was “stabilizes the concentration”.

Question: What about the “Relative content … for 50 days” value ([1]; 0.2% MC) of the same compound?
Answer: Its value is 79%.

Question: And the “Relative content … for 50 days” value ([1]; control (no prolongator))?
Answer: Its value is 83%.

Question: And the “Decrease of the concentration of SkQ1” value ([2]; absence of benzalkonium chloride, 24 hours)?
Answer: Its value is 58%.

Question: What about the “Decrease of SkQ1 concentration during storage (in words)” value ([2]; addition of 0.01% benzalkonium chloride, SkQ1 up to 250 nM, 24 hours) of the same compound?
Answer: Its value is “completely prevented; also recorded: prevents a decrease in the concentration”.

Question: And the “Determined concentration of SkQ1 in 24 hours” value (“Determined concentration” for short) ([2]; benzalkonium chloride 0 (control) %, added SkQ1 250 nM)?
Answer: Its value is 104 nM.

Question: What about the “Relative content of SkQ1” value ([2]; benzalkonium chloride 0 (control) %, added SkQ1 250 nM, 24 hours) of the same compound?
Answer: Its value is 42%.

Question: What about the “Determined concentration” value ([2]; benzalkonium chloride 0.01%, added SkQ1 50 nM) of the same compound?
Answer: Its value is 56 nM.

Question: What about the “Relative content of SkQ1” value ([2]; benzalkonium chloride 0.01%, added SkQ1 50 nM, 24 hours) of the same compound?
Answer: The value was 112%.

Question: And the “Determined concentration” value ([2]; benzalkonium chloride 0.01%, added SkQ1 100 nM)?
Answer: The value was 97 nM.

Question: What about the “Relative content of SkQ1” value ([2]; benzalkonium chloride 0.01%, added SkQ1 100 nM, 24 hours) of the same compound?
Answer: The value was 97%.

Question: And the “Determined concentration” value ([2]; benzalkonium chloride 0.01%, added SkQ1 180 nM)?
Answer: The value was 180 nM.

Question: And the “Relative content of SkQ1” value ([2]; benzalkonium chloride 0.01%, added SkQ1 180 nM, 24 hours)?
Answer: The value was 100%.

Question: And the “Determined concentration” value ([2]; benzalkonium chloride 0.01%, added SkQ1 250 nM)?
Answer: The value was 254 nM.

Question: What about the “Relative content of SkQ1” value ([2]; benzalkonium chloride 0.01%, added SkQ1 250 nM, 24 hours) of the same compound?
Answer: Its value is 102%.

Reference: US10213392B2, “Pharmaceutical composition for use in medical and veterinary ophthalmology” (Mitotech SA, priority 2009, dated 2019)
